Data from patent US20240360081A1, “SULFONAMIDE OREXIN RECEPTOR AGONISTS AND USES THEREOF” (Jazz Pharmaceuticals Ireland Limited, priority 2021, published 2024).

target: T1, human recombinant OX2 (hOX2) receptor expressed in CHO cells (Homo sapiens, UniProt O43614); experiment: IP-1 accumulation assay (IP-One HTRF) in hOX2-CHO cells; assay type: cell-based; details: 60 min at 37° C., 11 points CRC, response as % of maximal OX-A response
T1 construct: host or cells: CHO cells (hOX2-CHO)
T1 sequence (O43614 1-444): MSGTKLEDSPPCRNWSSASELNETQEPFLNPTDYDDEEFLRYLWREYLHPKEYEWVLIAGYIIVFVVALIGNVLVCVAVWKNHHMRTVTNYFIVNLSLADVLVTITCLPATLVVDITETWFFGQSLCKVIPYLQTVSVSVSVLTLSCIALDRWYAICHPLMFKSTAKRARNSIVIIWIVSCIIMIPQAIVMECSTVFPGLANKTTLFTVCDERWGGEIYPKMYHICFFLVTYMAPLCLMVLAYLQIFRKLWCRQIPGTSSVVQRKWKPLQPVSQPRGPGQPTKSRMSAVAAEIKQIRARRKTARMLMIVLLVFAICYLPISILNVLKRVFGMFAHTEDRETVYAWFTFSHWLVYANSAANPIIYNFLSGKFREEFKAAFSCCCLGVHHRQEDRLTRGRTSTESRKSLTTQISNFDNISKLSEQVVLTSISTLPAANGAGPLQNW
Method: The accumulation of Inositol-1 Monophosphate (IP-1) was measured using IP-One HTRF® Terbium cryptate based assay (Cisbio) in human recombinant OX1 (hOX1) and at OX2 (hOX2) receptors expressed in CHO cells (DiscoverX) according to the manufacturer's instructions for cells tested in suspension.
hOX1-CHO and hOX2-CHO cells were seeded into white 384-well plates at a density of 20,000 cells/well in Hank's Balanced Salt Solution (HBSS) containing 20 mM HEPES pH 7.4, 50 mM, LiCl and 0.1% and Bovine Serum Albumin (BSA).
Compounds of the present disclosure were tested in a 11 points concentration response curve (CRC) serially diluted in neat DMSO at 200 fold concentrations and added by Echo acoustic liquid handling (Labcyte) to the cells (0.5% DMSO final in the assay). After 60 min of incubation at 37° C. detection reagents, IP1-d2 tracer and anti-IP1-cryptate were diluted in lysis buffer according to the manufacturer's descriptions and added to the cells.
Following 60 min incubation at room temperature, time-resolved fluorescence (HTRF) was measured at 615 nm and 665 nm by Envision Multilabel reader (Perkin Elmer) and the HTRF ratio (A665/A615x104) was calculated.
The IP-1 accumulation response was expressed as percentage of the maximal OX-A response.
Curve fitting and EC50 estimations were carried out using a four-parameter logistic model using XLfit Software. Mean data of EC50 are calculated from at least two independent experiments performed in duplicates.
In the Tables, below Category A corresponds to compounds displaying an […]<100 nM, Category B between 100 nM and 1,000 nM, Category C between 1,000 nM and 10,000 nM and Category D above 10,000 nM.

CN(C)S(=O)(=O)NCC(CO[C@H]1CC[C@@H](c2ccccc2)CC1)n1ccccc1=O (relative stereo) [Example 1f, 1-{1-[(Dimethylsulfamoyl)amino]-3-{[(CIS)-4-phenylcyclohexyl]oxy}propan-2-yl}-1,2-dihydropyridin-2-one] and CS(=O)(=O)NCC(CO[C@H]1CC[C@@H](c2ccccc2)CC1)n1ccccc1=O (stereo partly drawn) [Example 1, N-[2-(2-oxo-1,2-dihydropyridin-1-yl)-3-{[(CIS)-4-phenylcyclohexyl]oxy}propyl]methanesulfonamide] fall in the same range of EC50: 1000 to 10000 nM for the first, 1000 to 10000 nM for the second.

First: Cc1cc(C(CNS(=O)(=O)N(C)C)CO[C@H]2CC[C@@H](c3cccc(F)c3)CC2)c(=O)n(C(F)F)c1 (single isomer, unassigned; isomer 2) [Example 5ac, (S or R) 1-(difluoromethyl)-3-[1-[(dimethylsulfamoyl)amino]-3-{[(CIS)-4-(3-fluorophenyl)cyclohexyl]oxy}propan-2-yl]-5-methyl-1,2-dihydropyridin-2-one—Isomer 2]
Second: Cc1cc(C)c(=O)n(C(CNS(=O)(=O)N(C)C)CO[C@H]2CC[C@@H](c3cccc(F)c3)CC2)c1 (stereo partly drawn) [Example 2aq, 1-{1-[(dimethylsulfamoyl)amino]-3-{[(CIS)-4-(3-fluorophenyl)cyclohexyl]oxy}propan-2-yl}-3,5-dimethyl-1,2-dihydropyridin-2-one]
The EC50 of the first is higher: 100 to 1000 nM for the first, less than 100 nM for the second. The second is the more potent here.

Cc1cc(C)c(=O)n(C(CNS(C)(=O)=O)COC2CCN(c3ncc(F)cn3)CC2)c1 (single isomer, unassigned; isomer 2) [Example 2ba, (S or R) N-[2-(3,5-dimethyl-2-oxo-1,2-dihydropyridin-1-yl)-3-{[1-(5-fluoropyrimidin-2-yl)piperidin-4-yl]oxy}propyl]methanesulfonamide-Isomer 2] and Cc1cc(C)c(=O)n(C(CNS(C)(=O)=O)COC2CCC3(CCOC3)CC2)c1 (stereo not drawn) [Example 2bd, N-[2-(3,5-dimethyl-2-oxo-1,2-dihydropyridin-1-yl)-3-{2-oxaspiro[4.5]decan-8-yloxy}propyl]methanesulfonamide] cannot be ordered by EC50: greater than 10000 nM for the first, greater than 10000 nM for the second.

First: Cc1cc(C)c(=O)n(C(CNS(C)(=O)=O)COC2CCN(c3ncc(F)cn3)CC2)c1 (stereo not drawn) [Example 2ay, N-[2-(3,5-dimethyl-2-oxo-1,2-dihydropyridin-1-yl)-3-{[1-(5-fluoropyrimidin-2-yl)piperidin-4-yl]oxy}propyl]methanesulfonamide]
Second: Cc1cc(C)c(=O)n(C(CNS(=O)(=O)CF)CO[C@H]2CC[C@@H](c3cccc(F)c3)CC2)c1 (single isomer, unassigned; isomer 2) [Example 2av, (S or R) N-[2-(3,5-dimethyl-2-oxo-1,2-dihydropyridin-1-yl)-3-{[(CIS)-4-(3-fluorophenyl)cyclohexyl]oxy}propyl]-1-fluoromethanesulfonamide-Isomer 2]
The EC50 of the first is higher: greater than 10000 nM for the first, 100 to 1000 nM for the second. The second is the more potent here.

Cc1ccnn1C(CNS(C)(=O)=O)CO[C@H]1CC[C@@H](c2ccccc2)CC1 (single isomer, unassigned; isomer 2) [Example 2ae, (S or R) N-[2-(5-methyl-1H-pyrazol-1-yl)-3-{[(CIS)-4-phenylcyclohexyl]oxy}propyl]methanesulfonamide-Isomer 2] and Cc1ccn(C(CNS(C)(=O)=O)CO[C@H]2CC[C@@H](c3ccccc3)CC2)n1 (single isomer, unassigned; isomer 2) [Example 2ac, (S or R) N-[2-(3-methyl-1H-pyrazol-1-yl)-3-{[(CIS)-4-phenylcyclohexyl]oxy}propyl]methanesulfonamide-Isomer 2] cannot be ordered by EC50: greater than 10000 nM for the first, greater than 10000 nM for the second.

First: Cc1ccn(C(CNS(C)(=O)=O)CO[C@H]2CC[C@@H](c3ccccc3)CC2)c(=O)c1C (single isomer, unassigned; isomer 2) [Example 2o, (S or R) N-[2-(3,4-dimethyl-2-oxo-1,2-dihydropyridin-1-yl)-3-{[(CIS)-4-phenylcyclohexyl]oxy}propyl]methanesulfonamide-Isomer 2]
Second: Cc1ccn(C(CNS(C)(=O)=O)CO[C@H]2CC[C@@H](c3ccccc3)CC2)c(=O)c1 (stereo partly drawn) [Example 2d, N-[2-(4-methyl-2-oxo-1,2-dihydropyridin-1-yl)-3-{[(CIS)-4-phenylcyclohexyl]oxy}propyl]methanesulfonamide]
The EC50 of the first is higher: greater than 10000 nM for the first, 1000 to 10000 nM for the second. The second is the more potent here.

First: CCc1cccn(C(CNS(C)(=O)=O)CO[C@H]2CC[C@@H](c3ccccc3)CC2)c1=O (stereo partly drawn) [Example 2, N-[2-(3-ethyl-2-oxo-1,2-dihydropyridin-1-yl)-3-{[(CIS)-4-phenylcyclohexyl]oxy}propyl]methanesulfonamide]
Second: Cc1ccc(=O)n(C(CNS(C)(=O)=O)CO[C@H]2CC[C@@H](c3ccccc3)CC2)c1 (single isomer, unassigned; isomer 2) [Example 2k, (S or R) N-[2-(5-methyl-2-oxo-1,2-dihydropyridin-1-yl)-3-{[(CIS)-4-phenylcyclohexyl]oxy}propyl]methanesulfonamide-Isomer 2]
The EC50 of the first is lower: 1000 to 10000 nM for the first, greater than 10000 nM for the second.

First: Cc1cc(C)c(=O)n(C(CNS(=O)(=O)C2CC2)CO[C@H]2CC[C@@H](c3cccc(F)c3)CC2)c1 (single isomer, unassigned; isomer 2) [Example 2an, (S or R) N-[2-(3,5-dimethyl-2-oxo-1,2-dihydropyridin-1-yl)-3-{[(CIS)-4-(3-fluorophenyl)cyclohexyl]oxy}propyl]cyclopropanesulfonamide-Isomer 2]
Second: Cc1cc(C(CNS(=O)(=O)CF)CO[C@H]2CC[C@@H](c3cccc(F)c3)CC2)c(=O)n(C)c1 (single isomer, unassigned; isomer 1) [Example 5n, (R or S) N-[2-(1,5-dimethyl-2-oxo-1,2-dihydropyridin-3-yl)-3-{[(CIS)-4-(3-fluorophenyl)cyclohexyl]oxy}propyl]-1-fluoromethanesulfonamide—Isomer 1]
The EC50 of the first is higher: 1000 to 10000 nM for the first, less than 100 nM for the second.

Cc1cc(C(CNS(=O)(=O)N(C)C)CO[C@H]2CC[C@@H](c3cc(F)cc(F)c3)CC2)c(=O)n(C)c1 (stereo partly drawn) [Example 5u, 3-{1-[(dimethylsulfamoyl)amino]-3-{[(CIS)-4-(3,5-difluorophenyl)cyclohexyl]oxy}propan-2-yl}-1,5-dimethyl-1,2-dihydropyridin-2-one] and Cc1cc(C(CNS(C)(=O)=O)CO[C@H]2CC[C@@H](c3cccc(F)c3)CC2)c(=O)n(CC(F)F)c1 (stereo partly drawn) [Example 5w, N-{2-[1-(2,2-difluoroethyl)-5-methyl-2-oxo-1,2-dihydropyridin-3-yl]-3-{[(CIS)-4-(3-fluorophenyl)cyclohexyl]oxy}propyl}methanesulfonamide] cannot be ordered by EC50: less than 100 nM for the first, less than 100 nM for the second.

First: CS(=O)(=O)NCC(CO[C@H]1CC[C@@H](c2ccccc2)CC1)n1c(=O)ccc2ccccc21 (stereo partly drawn) [Example 2ak, N-[2-(2-oxo-1,2-dihydroquinolin-1-yl)-3-{[(CIS)-4-phenylcyclohexyl]oxy}propyl]methanesulfonamide]
Second: Cc1ccc(=O)n(C(CNS(C)(=O)=O)CO[C@H]2CC[C@@H](c3ccccc3)CC2)c1 (single isomer, unassigned; isomer 1) [Example 2j, (R or S) N-[2-(5-methyl-2-oxo-1,2-dihydropyridin-1-yl)-3-{[(CIS)-4-phenylcyclohexyl]oxy}propyl]methanesulfonamide-Isomer 1]
The EC50 of the first is higher: greater than 10000 nM for the first, 100 to 1000 nM for the second.

First: CS(=O)(=O)NCC(CO[C@H]1CC[C@@H](c2ccccc2)CC1)n1ccc2cccnc21 (stereo partly drawn) [Example 2z, N-(2-{1H-pyrrolo[2,3-b]pyridin-1-yl}-3-{[(CIS)-4-phenylcyclohexyl]oxy}propyl)methanesulfonamide]
Second: Cc1ccn(C(CNS(C)(=O)=O)CO[C@H]2CC[C@@H](c3ccccc3)CC2)n1 (single isomer, unassigned; isomer 1) [Example 2ab, (R or S) N-[2-(3-methyl-1H-pyrazol-1-yl)-3-{[(CIS)-4-phenylcyclohexyl]oxy}propyl]methanesulfonamide-Isomer 1]
The EC50 of the first is lower: 1000 to 10000 nM for the first, greater than 10000 nM for the second.

First: Cc1cc(Br)cn(C(CNS(C)(=O)=O)CO[C@H]2CC[C@@H](c3ccccc3)CC2)c1=O (stereo partly drawn) [Example 2x, N-[2-(5-bromo-3-methyl-2-oxo-1,2-dihydropyridin-1-yl)-3-{[(CIS)-4-phenylcyclohexyl]oxy}propyl]methanesulfonamide]
Second: CS(=O)(=O)NCC(CO[C@H]1CC[C@@H](c2ccccc2)CC1)n1cc(OC(F)F)ccc1=O (stereo partly drawn) [Example 2q, N-{2-[5-(difluoromethoxy)-2-oxo-1,2-dihydropyridin-1-yl]-3-{[(CIS)-4-phenylcyclohexyl]oxy}propyl}methanesulfonamide]
The EC50 of the first is lower: 100 to 1000 nM for the first, 1000 to 10000 nM for the second. The first is the more potent here.
